Measurements as given in the NIST ThermoML archive (doi:10.1021/je900807v).
± gives the expanded uncertainty stated by the source. Each block holds one compound with its values, some of them ahead of it.

Experiments:
[1] = xn = mol fraction of the nth substance listed; settings: 298.15 K, 101 kPa, Liquid
[2] = refractive index (Na D-line) (dimensionless); settings: 298.15 K; 101.33 kPa; Liquid; Standard Abbe refractometry
[3] = 298.15 K, 101.33 kPa, Liquid

- mass density ([1]; x2 = 0): 873.57 ± 0.17 kg/m3
Compound: c1ccccc1 [benzene] + CC1CCCCC1

Compound: CC1CCCCC1 [methylcyclohexane] + CCc1ccccc1
- mass density ([1]; x1 = 0.0494): 857.22 ± 0.19 kg/m3
- mass density ([1]; x1 = 0.0975): 852.13 ± 0.19 kg/m3
- mass density ([1]; x1 = 0.1983): 841.55 ± 0.21 kg/m3
- mass density ([1]; x1 = 0.2981): 831.2 ± 0.23 kg/m3
- mass density ([1]; x1 = 0.4008): 820.93 ± 0.25 kg/m3
- mass density ([1]; x1 = 0.5005): 811.01 ± 0.26 kg/m3
- mass density ([1]; x1 = 0.6001): 801.41 ± 0.28 kg/m3
- mass density ([1]; x1 = 0.7006): 792.06 ± 0.3 kg/m3
- mass density ([1]; x1 = 0.7952): 783.15 ± 0.32 kg/m3
- mass density ([1]; x1 = 0.8949): 774.23 ± 0.34 kg/m3
- mass density ([1]; x1 = 0.9495): 769.34 ± 0.35 kg/m3
- mass density ([1]; x1 = 1): 765.02 ± 0.36 kg/m3

Compound: CC1CCCCC1 [methylcyclohexane] + c1ccccc1
- mass density ([1]; x1 = 0.0504): 865.01 ± 0.18 kg/m3
- mass density ([1]; x1 = 0.099): 857.13 ± 0.19 kg/m3
- mass density ([1]; x1 = 0.1998): 841.92 ± 0.2 kg/m3
- mass density ([1]; x1 = 0.2978): 829.01 ± 0.22 kg/m3
- mass density ([1]; x1 = 0.3991): 816.54 ± 0.24 kg/m3
- mass density ([1]; x1 = 0.4993): 805.76 ± 0.26 kg/m3
- mass density ([1]; x1 = 0.598): 796.03 ± 0.28 kg/m3
- mass density ([1]; x1 = 0.6991): 787.22 ± 0.3 kg/m3
- mass density ([1]; x1 = 0.7981): 779.31 ± 0.32 kg/m3
- mass density ([1]; x1 = 0.8961): 772.04 ± 0.34 kg/m3
- mass density ([1]; x1 = 0.9523): 768.25 ± 0.35 kg/m3
- mass density ([1]; x1 = 1): 765.02 ± 0.36 kg/m3

- refractive index [2]: 1.50591 ± 0.0007
- mass density ([3]; Vibrating tube method): 1219.61 ± 0.42 kg/m3
Compound: CCOS(=O)(=O)[O-].CC[n+]1cccc(C)c1 [1-ethyl-3-methylpyridinium ethylsulfate]

- refractive index [2]: 1.49304 ± 0.00068
- mass density [3]: 862.51 ± 0.18 kg/m3
Compound: CCc1ccccc1 [ethylbenzene]

Compound: CC1CCCCC1 [methylcyclohexane] + Cc1ccccc1
- mass density ([1]; x1 = 0.05): 855.9 ± 0.18 kg/m3
- mass density ([1]; x1 = 0.0998): 849.91 ± 0.19 kg/m3
- mass density ([1]; x1 = 0.198): 838.24 ± 0.21 kg/m3
- mass density ([1]; x1 = 0.2951): 827.41 ± 0.22 kg/m3
- mass density ([1]; x1 = 0.3968): 816.83 ± 0.24 kg/m3
- mass density ([1]; x1 = 0.4959): 806.9 ± 0.26 kg/m3
- mass density ([1]; x1 = 0.5973): 797.45 ± 0.28 kg/m3
- mass density ([1]; x1 = 0.697): 788.64 ± 0.3 kg/m3
- mass density ([1]; x1 = 0.7954): 780.42 ± 0.32 kg/m3
- mass density ([1]; x1 = 0.8932): 772.71 ± 0.34 kg/m3
- mass density ([1]; x1 = 0.9487): 768.66 ± 0.35 kg/m3
- mass density ([1]; x1 = 1): 765.02 ± 0.36 kg/m3

- refractive index [2]: 1.49774 ± 0.00068
- mass density [3]: 873.57 ± 0.17 kg/m3
Compound: c1ccccc1 [benzene]

Compound: CC1CCCCC1 [methylcyclohexane]
- refractive index [2]: 1.42062 ± 0.0007
- mass density [3]: 765.02 ± 0.36 kg/m3

Compound: Cc1ccccc1 [toluene] + CC1CCCCC1
- mass density ([1]; x2 = 0): 862.17 ± 0.18 kg/m3

Compound: Cc1ccccc1 [toluene]
- refractive index [2]: 1.49399 ± 0.00068
- mass density [3]: 862.17 ± 0.18 kg/m3

- mass density ([1]; x2 = 0): 862.51 ± 0.18 kg/m3
Compound: CCc1ccccc1 [ethylbenzene] + CC1CCCCC1
